Results: publication PMC3395220 (Journal of Medicinal Chemistry, 2012)

Assays:
CAKI-1 = format: cell-based, human; settings: 10^Δ2-x, relative to compound 2
SF-295 = format: cell-based, human; settings: 10^Δ2-x, relative to compound 2
HT29 = format: cell-based, human; settings: 10^Δ2-x, relative to compound 2
PC-3 = format: cell-based, human; settings: 10^Δ2-x, relative to compound 2
MCF7 = format: cell-based, human; settings: 10^Δ2-x, relative to compound 2
SF-539 = format: cell-based, human; settings: 10^Δ2-x, relative to compound 2
SNB-19 = format: cell-based, human; settings: 10^Δ2-x, relative to compound 2
Plasma pharmacokinetics = format: in vivo, CD-1 mice; settings: mice, iv 18 mg/kg
UACC-62 = format: cell-based, human; settings: 10^Δ2-x, relative to compound 2
SW-620 = format: cell-based, human; settings: 10^Δ2-x, relative to compound 2
MDA-MB-468 = format: cell-based, human; settings: 10^Δ2-x, relative to compound 2
EKVX = format: cell-based, human; settings: 10^Δ2-x, relative to compound 2
UO-31 = format: cell-based, human; settings: 10^Δ2-x, relative to compound 2
OVCAR-8 = format: cell-based, human; settings: 10^Δ2-x, relative to compound 2
OVCAR-5 = format: cell-based, human; settings: 10^Δ2-x, relative to compound 2
[1] = system: COLO-205 (colon), A549 (non-small cell lung) and BXCP3 (pancreas); experiment: cells; format: cell-based; settings: 72 h, read-out: average GI50 (50% of growth inhibition)
DU-145 = format: cell-based, human; settings: 10^Δ2-x, relative to compound 2
SK-MEL-2 melanoma cells = experiment: Subcutaneous SK-MEL-2 melanoma xenograft; format: in vivo, athymic nu/nu mice; settings: iv q2dx10 at 10 mg/Kg and q3dx10 at 20 mg/Kg
A549/ATCCC = format: cell-based, human; settings: 10^Δ2-x, relative to compound 2
HL-60(TB) = format: cell-based, human; settings: 10^Δ2-x, relative to compound 2
[2] = system: COLO-205 colon cancer cells; experiment: Subcutaneous COLO-205 colon xenograft; format: in vivo, athymic nu/nu mice; settings: iv q2dx10 at 10 mg/Kg and q3dx10 at 20 mg/Kg
MDA-MB-231/ATCC = format: cell-based, human; settings: 10^Δ2-x, relative to compound 2
RXF 393 = format: cell-based, human; settings: 10^Δ2-x, relative to compound 2
NCI-H23 = format: cell-based, human; settings: 10^Δ2-x, relative to compound 2
KM12 = format: cell-based, human; settings: 10^Δ2-x, relative to compound 2
HCT-15 = format: cell-based, human; settings: 10^Δ2-x, relative to compound 2
NCI-H226 = format: cell-based, human; settings: 10^Δ2-x, relative to compound 2
CCRF-CEM = format: cell-based, human; settings: 10^Δ2-x, relative to compound 2
NCI-H522 = format: cell-based, human; settings: 10^Δ2-x, relative to compound 2
M14 = format: cell-based, human; settings: 10^Δ2-x, relative to compound 2
SK-MEL2 = format: cell-based, human; settings: 10^Δ2-x, relative to compound 2
COLO 205 = format: cell-based, human; settings: 10^Δ2-x, relative to compound 2
786-0 = format: cell-based, human; settings: 10^Δ2-x, relative to compound 2
OVCAR-4 = format: cell-based, human; settings: 10^Δ2-x, relative to compound 2
UACC-257 = format: cell-based, human; settings: 10^Δ2-x, relative to compound 2
K-562 = format: cell-based, human; settings: 10^Δ2-x, relative to compound 2
HS578T = format: cell-based, human; settings: 10^Δ2-x, relative to compound 2
NCI-H460 = format: cell-based, human; settings: 10^Δ2-x, relative to compound 2
IGROV1 = format: cell-based, human; settings: 10^Δ2-x, relative to compound 2
HOP-92 = format: cell-based, human; settings: 10^Δ2-x, relative to compound 2
[3] = Assays of toxicity, maximum tolerated dose; settings: in vivo
SK-OV-3 = format: cell-based, human; settings: 10^Δ2-x, relative to compound 2
SK-MEL-5 = format: cell-based, human; settings: 10^Δ2-x, relative to compound 2
NCI/ADR-RES = experiment: cells; format: cell-based, human
LOX IMVI = format: cell-based, human; settings: 10^Δ2-x, relative to compound 2
OVCAR-3 = format: cell-based, human; settings: 10^Δ2-x, relative to compound 2
HCC-2998 = format: cell-based, human; settings: 10^Δ2-x, relative to compound 2
MDA-MB-435 = format: cell-based, human; settings: 10^Δ2-x, relative to compound 2
[4] = Tolerability during xenograft treatment; format: in vivo, athymic nu/nu mice; settings: iv q2dx10 10 mg/Kg and q3dx10 20 mg/Kg, colon and melanoma models
ACHN = format: cell-based, human; settings: 10^Δ2-x, relative to compound 2
MOLT-4 = format: cell-based, human; settings: 10^Δ2-x, relative to compound 2
[5] = system: EWS-FLI1 transcription factor; settings: compared to 1, as opposed to a non-specific promoter; cited from earlier work

CO[C@@H]([C@@H]1Cc2cc3cc(O[C@H]4C[C@@H](O[C@H]5C[C@@H](O)[C@H](O)[C@@H](C)O5)[C@H](O)[C@@H](C)O4)c(C)c(O)c3c(O)c2C(=O)[C@H]1O[C@H]1C[C@@H](O[C@H]2C[C@@H](O[C@H]3C[C@H](O)[C@H](O)[C@@H](C)O3)[C@H](O)[C@@H](C)O2)[C@H](O)[C@@H](C)O1)[C@@H](O)C(C)=O [Compound 9, demycarosyl-3D-β-D-digitoxosyl-mithramycin SK]
activity improvement factor (CAKI-1): 1.64
activity improvement factor (SF-295): 2.00
activity improvement factor (HT29): 3.55
activity improvement factor (PC-3): 4.62
activity improvement factor (MCF7): 0.92
activity improvement factor (SF-539): 1.30
activity improvement factor (SNB-19): 1.55
plasma level (Plasma pharmacokinetics; after 30 min): ~1,7 μM
plasma level (Plasma pharmacokinetics; after 120 min): below 0,1 μM
activity improvement factor (UACC-62): 1.02
activity improvement factor (SW-620): 1.30
activity improvement factor (MDA-MB-468): 1.48
activity improvement factor (EKVX): 1.60
activity improvement factor (UO-31): 2.40
activity improvement factor (OVCAR-8): 1.51
activity improvement factor (OVCAR-5): 1.97
GI50 [1]: 300 to 1300 nM
activity improvement factor (DU-145): 4.47
growth of SK-MEL-2 human melanoma xenografts (SK-MEL-2 melanoma cells): markedly delayed
activity improvement factor (A549/ATCCC): 2.04
activity improvement factor (HL-60(TB)): 2.24
tumor growth of COLO-205 colon xenografts [2]: reduced notably
activity improvement factor (MDA-MB-231/ATCC): 2.75
activity improvement factor (RXF 393): 0.86
activity improvement factor (NCI-H23): 1.86
activity improvement factor (KM12): 1.66
activity improvement factor (HCT-15): 1.00
activity improvement factor (NCI-H226): 2.26
activity improvement factor (CCRF-CEM): 1.14
activity improvement factor (NCI-H522): 0.79
activity improvement factor (M14): 2.19
activity improvement factor (SK-MEL2): 1.23
activity improvement factor (COLO 205): 2.26
activity improvement factor (786-0): 1.88
activity improvement factor (OVCAR-4): 3.76
activity improvement factor (UACC-257): 1.66
activity improvement factor (K-562): 1.40
activity improvement factor (HS578T): 1.76
activity improvement factor (NCI-H460): 1.19
activity improvement factor (IGROV1): 7.16
activity improvement factor (HOP-92): 1.11
fold less toxicity than parental compound 1, single treatment [3]: about 32 fold
activity improvement factor (SK-OV-3): 3.85
activity improvement factor (SK-MEL-5): 1.62
activity improvement factor (NCI/ADR-RES; 10^Δ2-x, relative to compound 2): 0.15
GI50 (NCI/ADR-RES; Homo sapiens): > 10 µM
activity improvement factor (LOX IMVI): 1.23
activity improvement factor (OVCAR-3): 3.51
activity improvement factor (HCC-2998): 3.76
activity improvement factor (MDA-MB-435): 1.82
tolerability in xenograft-bearing mice [4]: well tolerated and no signs of toxicity or deaths
activity improvement factor (ACHN): 4.47
activity improvement factor (MOLT-4): 2.43
inhibition of luciferase activity driven by NRB01 [5]: inhibits more effectively
